From PMC13194723, “Structural basis for pH-responsive amino acid transport via SLC7A4” (Nature Communications, 2026)
One block for each molecule: values may come before it.

How the values were obtained:
[1] = target: T1, human SLC7A4 (Homo sapiens, UniProt O43246); experiment: competition of […] L-Leu uptake in HCT116 SLC7A5 KO cells; also recognised in nanoDSF; not transported; type: cell-based
T1 construct: C-terminal FLAG tag
T1 sequence (O43246 1-635): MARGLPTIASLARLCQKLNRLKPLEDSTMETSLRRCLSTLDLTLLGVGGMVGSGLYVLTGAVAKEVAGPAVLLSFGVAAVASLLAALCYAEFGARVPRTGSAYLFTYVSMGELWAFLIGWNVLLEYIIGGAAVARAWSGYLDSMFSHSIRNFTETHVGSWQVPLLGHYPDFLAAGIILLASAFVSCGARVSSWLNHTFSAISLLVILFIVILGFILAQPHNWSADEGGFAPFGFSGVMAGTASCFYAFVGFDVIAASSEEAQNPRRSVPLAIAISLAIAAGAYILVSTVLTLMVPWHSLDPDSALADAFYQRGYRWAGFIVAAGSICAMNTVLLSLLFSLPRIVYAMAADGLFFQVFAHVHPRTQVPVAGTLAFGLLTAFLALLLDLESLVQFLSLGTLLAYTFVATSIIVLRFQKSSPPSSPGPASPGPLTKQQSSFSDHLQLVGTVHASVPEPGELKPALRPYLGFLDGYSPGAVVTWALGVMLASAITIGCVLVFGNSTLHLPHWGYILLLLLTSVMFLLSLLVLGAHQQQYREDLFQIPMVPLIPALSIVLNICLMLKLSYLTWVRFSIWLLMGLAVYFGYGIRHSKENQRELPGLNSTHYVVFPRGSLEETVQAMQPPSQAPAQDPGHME

[2] = target: T2, human SLC7A4 triple mutant (Tri-M) (Homo sapiens, UniProt O43246, L336S/L394M/V332S); experiment: competition of […] L-Leu uptake in HCT116 SLC7A5 KO cells; type: cell-based
T2 construct: C-terminal FLAG tag
T2 sequence (O43246 1-635 V332S/L336S/L394M): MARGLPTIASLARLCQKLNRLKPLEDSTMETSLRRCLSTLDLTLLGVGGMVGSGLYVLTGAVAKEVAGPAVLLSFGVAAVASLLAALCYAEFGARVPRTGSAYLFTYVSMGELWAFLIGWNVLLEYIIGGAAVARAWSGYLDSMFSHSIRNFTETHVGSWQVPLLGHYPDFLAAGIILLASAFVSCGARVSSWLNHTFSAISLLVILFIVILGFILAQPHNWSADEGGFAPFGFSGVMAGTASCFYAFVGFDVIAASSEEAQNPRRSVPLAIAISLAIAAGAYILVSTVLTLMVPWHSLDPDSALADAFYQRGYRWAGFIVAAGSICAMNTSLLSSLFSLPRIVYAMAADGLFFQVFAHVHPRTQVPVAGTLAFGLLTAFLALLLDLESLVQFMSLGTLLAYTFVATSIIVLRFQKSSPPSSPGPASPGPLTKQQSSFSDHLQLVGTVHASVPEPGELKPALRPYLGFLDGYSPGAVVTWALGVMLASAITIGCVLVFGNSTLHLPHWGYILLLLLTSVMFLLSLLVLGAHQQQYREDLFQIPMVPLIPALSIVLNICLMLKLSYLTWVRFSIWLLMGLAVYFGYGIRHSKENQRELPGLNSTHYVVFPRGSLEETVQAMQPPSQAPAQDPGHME

[3] = target: T2, human SLC7A4 triple mutant (Tri-M); experiment: […] L-Leu uptake and competition in HCT116 SLC7A5 KO cells; type: cell-based
[4] = target: T1, human SLC7A4; experiment: […] L-Leu uptake competition in HCT116 SLC7A5 KO cells overexpressing SLC7A4; also nanoDSF (~[…] °C) and proteoliposome uptake; type: cell-based
[5] = target: T3, Arabidopsis thaliana CAT4 (SLC7A4/CAT4) (Arabidopsis thaliana (Mouse-ear cress)., UniProt Q8W4K3); experiment: BLI; Octet Red 384; who was immobilised is not stated; details: both partners purified
T3 construct: Cationic amino acid transporter 4 (CAT4) of Arabidopsis thaliana, UniProt Q8W4K3; codon-optimised synthetic gene in pDDGFP-Leu2D; C-terminal TEV site (ENLYFQG/S), yeGFP and His12 removed by TEV protease, so part of the TEV site stays on the C-terminus; also called AtCAT4; Arabidopsis thaliana SLC7A4; source: S. cerevisiae BJ5460, purified in LMNG (Ni-NTA, TEV cleavage, HisTrap flow-through, SEC); …
T3 sequence (Q8W4K3 whole entry): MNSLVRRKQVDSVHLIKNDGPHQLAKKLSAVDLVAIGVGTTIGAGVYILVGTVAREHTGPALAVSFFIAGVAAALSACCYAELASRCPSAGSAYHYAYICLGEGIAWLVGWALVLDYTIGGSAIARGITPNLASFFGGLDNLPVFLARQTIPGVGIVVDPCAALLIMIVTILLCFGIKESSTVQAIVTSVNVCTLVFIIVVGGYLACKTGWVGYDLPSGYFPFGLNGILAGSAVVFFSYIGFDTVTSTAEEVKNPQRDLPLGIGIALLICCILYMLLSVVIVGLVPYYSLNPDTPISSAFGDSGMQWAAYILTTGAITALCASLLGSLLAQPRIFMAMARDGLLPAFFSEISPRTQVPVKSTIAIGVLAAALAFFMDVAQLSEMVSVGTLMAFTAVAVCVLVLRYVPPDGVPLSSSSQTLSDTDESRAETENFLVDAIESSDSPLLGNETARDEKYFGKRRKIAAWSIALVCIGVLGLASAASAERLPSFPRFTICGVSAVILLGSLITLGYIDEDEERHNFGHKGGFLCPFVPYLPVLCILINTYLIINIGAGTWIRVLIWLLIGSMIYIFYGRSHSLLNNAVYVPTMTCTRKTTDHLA

Molecule: N=C(N)NCCC[C@H](N)C(=O)O [L-Arginine]
IC50 [1]: 680 ± 19 µM | IC50 [2]: 48.6 ± 2.3 µM

Molecule: CC(C)C[C@H](N)C(=O)O [L-Leucine]
IC50 [3]: 65 µM | IC50 [4]: 24 ± 5 µM

Kd [5]: 0.0573 ± 0.0105 µM
B1: Sybody B5 (VHH)
VHH: QVQLVESGGGLVQAGGSLRLSCAASGFPVNMYWMHWYRQAPGKEREWVAAIQSYGQWTAYADSVKGRFTISRDNAKNTVYLQMNSLKPEDTAVYYCAVGVGGYYLGQGTQVTVS
notes: Synthetic nanobody selected from the loop sybody library against AtCAT4; also called SybB5; source: E. coli MC1061, periplasmic extraction, purified (Ni-NTA); not shown: Myc, C-terminal, kept; His6, C-terminal, kept
